Data reported in ChEMBL document CHEMBL1201862, “PubChem BioAssay data set” (2004).
Structures can show the parent of a compound that is named as a salt.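 Five compound concentrations were applied to cells in 96-well plates for 48 hours; endpoints were derived by simple linear interpolation of the resulting dose-response curve. GI50 = concentration required for 50% inhibition of growth.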 Active and inactive are the calls of the source. Rule as the data show it: active = GI50 up to about 1.1 µM and inactive = higher.

Assays:
Experiment in all cases: DTP human tumour cell line panel, 48 h
[1] = system: 786-0
[2] = system: A549
[3] = system: CAKI-1
[4] = system: CCRF-CEM
[5] = system: COLO 205
[6] = system: DLD-1
[7] = system: DMS-114
[8] = system: DMS-273
[9] = system: EKVX
[10] = system: HCC 2998
[11] = system: HCT-116
[12] = system: HOP-62
[13] = system: HOP-92
[14] = system: HT-29
[15] = system: IGROV-1
[16] = system: K562
[17] = system: KM12
[18] = system: LOX IMVI
[19] = system: LXFL 529
[20] = system: M14
[21] = system: M19-MEL
[22] = system: MOLT-4
[23] = system: Malme-3M
[24] = system: NCI-H226
[25] = system: NCI-H23
[26] = system: NCI-H460
[27] = system: NCI-H522
[28] = system: OVCAR-3
[29] = system: OVCAR-4
[30] = system: OVCAR-5
[31] = system: OVCAR-8
[32] = system: RXF 393
[33] = system: SF-268
[34] = system: SF-295
[35] = system: SF-539
[36] = system: SK-MEL-28
[37] = system: SK-MEL-2
[38] = system: SK-MEL-5
[39] = system: SK-OV-3
[40] = system: SN12C
[41] = system: SNB-19
[42] = system: SNB-75
[43] = system: SNB-78
[44] = system: SR
[45] = system: SW-620
[46] = system: TK-10
[47] = system: U-251
[48] = system: UACC-62
[49] = system: UO-31
[50] = system: XF498
[51] = system: A498
[52] = system: HCT-15
[53] = system: HL-60
[54] = system: HOP-18
[55] = system: KM-20L2
[56] = system: MCF7
[57] = system: NCI/ADR-RES
[58] = system: RPMI-8226
[59] = system: UACC-257
[60] = system: ACHN
[61] = system: MDA-MB-435

With `CCN1C(=O)C/C(=C\C(C)=O)Nc2ccccc21` the GI50 [1] was > 100 µM (inactive), the GI50 [2] was > 100 µM (inactive) and the GI50 [3] was > 100 µM (inactive). For the same molecule, the GI50 [4] was > 100 µM (inactive), the GI50 [5] was > 100 µM (inactive) and the GI50 [6] was 18.9 µM (inactive). The GI50 [7] was > 100 µM (inactive), the GI50 [8] was > 100 µM (inactive) and the GI50 [9] was > 100 µM (inactive). For the same molecule, the GI50 [10] was > 100 µM (inactive), the GI50 [11] was > 100 µM (inactive) and the GI50 [12] was > 100 µM (inactive). The GI50 [13] was > 100 µM (inactive), the GI50 [14] was > 100 µM (inactive) and the GI50 [15] was > 100 µM (inactive). The GI50 [16] was > 100 µM (inactive), the GI50 [17] was > 100 µM (inactive) and the GI50 [18] was > 100 µM (inactive). For the same molecule, the GI50 [19] was > 100 µM (inactive), the GI50 [20] was > 100 µM (inactive) and the GI50 [21] was > 100 µM (inactive). For the same molecule, the GI50 [22] was > 100 µM (inactive), the GI50 [23] was > 100 µM (inactive) and the GI50 [24] was > 100 µM (inactive). For the same molecule, the GI50 [25] was > 100 µM (inactive), the GI50 [26] was > 100 µM (inactive) and the GI50 [27] was > 100 µM (inactive). The GI50 [28] was > 100 µM (inactive), the GI50 [29] was > 100 µM (inactive) and the GI50 [30] was > 100 µM (inactive). The GI50 [31] was > 100 µM (inactive), the GI50 [32] was > 100 µM (inactive) and the GI50 [33] was > 100 µM (inactive). The GI50 [34] was > 100 µM (inactive), the GI50 [35] was > 100 µM (inactive) and the GI50 [36] was > 100 µM (inactive). For the same molecule, the GI50 [37] was > 100 µM (inactive), the GI50 [38] was 10 µM (inactive) and the GI50 [39] was > 100 µM (inactive). The GI50 [40] was 0.166 µM (active), the GI50 [41] was > 100 µM (inactive) and the GI50 [42] was 21.5 µM (inactive). For the same molecule, the GI50 [43] was > 100 µM (inactive), the GI50 [44] was > 100 µM (inactive) and the GI50 [45] was > 100 µM (inactive). For the same molecule, the GI50 [46] was > 100 µM (inactive), the GI50 [47] was > 100 µM (inactive) and the GI50 [48] was > 100 µM (inactive). The GI50 [49] was > 100 µM (inactive) and the GI50 [50] was > 100 µM (inactive).
With `Nc1nc(=O)n(C2OC(CO)C(O)C2O)cc1F` (stereo not drawn) the GI50 [51] was > 100 µM (inactive), the GI50 [2] was 0.255 µM (active) and the GI50 [3] was 1.65 µM (inactive). The GI50 [4] was < 0.0136 µM (active), the GI50 [5] was 79.4 µM (inactive) and the GI50 [6] was > 100 µM (inactive). The GI50 [7] was 0.0462 µM (active), the GI50 [8] was 4.36 µM (inactive) and the GI50 [10] was > 100 µM (inactive). For the same molecule, the GI50 [11] was 0.495 µM (active), the GI50 [52] was 3.13 µM and the GI50 [53] was 0.293 µM (active). For the same molecule, the GI50 [54] was 2.44 µM (inactive), the GI50 [12] was 0.228 µM (active) and the GI50 [13] was 0.0755 µM (active). The GI50 [14] was 5.65 µM (inactive), the GI50 [15] was > 100 µM (inactive) and the GI50 [16] was 0.506 µM (active). For the same molecule, the GI50 [55] was 2.29 µM (inactive), the GI50 [17] was > 100 µM (inactive) and the GI50 [18] was 0.297 µM (active). For the same molecule, the GI50 [21] was 0.731 µM (active), the GI50 [56] was 3.99 µM (inactive) and the GI50 [22] was < 0.0166 µM (active). The GI50 [24] was > 100 µM (inactive), the GI50 [25] was 0.191 µM (active) and the GI50 [26] was 0.102 µM (active). For the same molecule, the GI50 [27] was 0.785 µM (active), the GI50 [57] was 0.76 µM (active) and the GI50 [28] was > 100 µM (inactive). The GI50 [29] was > 100 µM (inactive), the GI50 [30] was 0.855 µM (active) and the GI50 [31] was 0.222 µM (active). The GI50 [58] was > 100 µM (inactive), the GI50 [32] was 43.5 µM (inactive) and the GI50 [33] was 2.75 µM (inactive). For the same molecule, the GI50 [34] was 21.8 µM (inactive), the GI50 [35] was 37.4 µM (inactive) and the GI50 [37] was > 100 µM (inactive). The GI50 [39] was > 100 µM (inactive), the GI50 [40] was 3.28 µM (inactive) and the GI50 [41] was 1.91 µM (inactive). The GI50 [45] was 22.2 µM (inactive), the GI50 [47] was 3.72 µM (inactive) and the GI50 [59] was 3.78 µM (inactive). For the same molecule, the GI50 [48] was 1.36 µM (inactive), the GI50 [49] was 10.3 µM (inactive) and the GI50 [50] was > 100 µM (inactive).
With `O=C1c2c(O)ccc(O)c2C(=O)c2c(NCCNCCO)ccc(NCCNCCO)c21` [MITOXANTRONE HYDROCHLORIDE] the GI50 [51] was 0.0619 µM (active), the GI50 [60] was 0.0115 µM (active) and the GI50 [3] was 0.00899 µM (active). For the same molecule, the GI50 [4] was 0.00598 µM (active), the GI50 [6] was 0.491 µM (active) and the GI50 [8] was 0.0119 µM (active). The GI50 [11] was 0.0553 µM (active), the GI50 [53] was 0.0103 µM (active) and the GI50 [54] was 0.126 µM (active). The GI50 [13] was 0.0177 µM (active), the GI50 [16] was 0.118 µM (active) and the GI50 [55] was 0.384 µM (active). For the same molecule, the GI50 [61] was 0.471 µM (active), the GI50 [24] was 0.0153 µM (active) and the GI50 [43] was 0.204 µM (active). The GI50 [44] was 0.00764 µM (active), the GI50 [46] was 0.423 µM (active) and the GI50 [47] was 0.0091 µM (active). The GI50 [59] was 1.89 µM (inactive) and the GI50 [50] was 0.0136 µM (active).
